Test results reported in paper PMC12382740, “In Vitro and In Vivo Characterization of Novel Cathelicidin-Based Peptides with Antimicrobial Activity Against Pseudomonas aeruginosa” (Antibiotics, 2025).
Square brackets hold non-standard residues; d marks the D form. Peptide text beside a SMILES is read from it.

How the values were obtained:
P. aeruginosa R2 = assay: Time-kill kinetic assay; format: cell-based, Pseudomonas aeruginosa
Protocol: Timepoints to withdraw aliquots of liquid cultures for each peptide, concentration, and strain were established at the following: 0, 2, 4, 8, and 24 h after inoculation. McFarland 0.5 solutions (~1.5 × 10^8 CFU/mL) were prepared from single-picked colonies grown O/N at 37 °C in Columbia Agar plates. Thirteen mL Falcon tubes were used to prepare solutions containing 5 mL of total volume by adding the following: 1 mL of peptide solution at 5 times chosen assay concentration to test, 3.75 mL AST, and 0.25 mL of a 1:10 McFarland dilution in AST. Positive controls contained 4.75 mL AST and 0.25 mL of strain inoculum diluted in AST; negative controls only contained 5 mL of AST. After adding the inoculum into each tube and vortexing, a 150 µL aliquot was taken from each tube at timepoint 0 h. All tubes were then placed in a 37 °C shaker-incubator at 180 rpm. Likewise, for timepoints 2, 4, 8, and 24 h, a 150 µL aliquot was withdrawn at each time for each tube. Each of these aliquots was serially diluted in 1:10 ratio in PBS 1× and 20 µL of the serial dilutions were spread on LB agar plates and incubated O/N at 37 °C. […] grown in LB agar plates were counted. Bacterial concentration (CFU/mL) for each strain, timepoint, and peptide concentration tested was calculated. Bactericidal effect was considered when there was a decrease of at least 3 in log10 (CFU/mL) for each peptide concentration at a given timepoint against each bacterial strain studied. A detection limit of 50 CFU/mL was established, corresponding to 1.70 log10 (CFU/mL), as 20 µL of each direct aliquot sample was spread in LB agar plates. Three replicates were run per peptide and strain.

[1] = test system: P. aeruginosa R2 and 121110 strains; assay: Transmission electron microscopy of treated bacteria; format: cell-based, Pseudomonas aeruginosa; settings: 4 h incubation at 4× MIC
Protocol: Bacterial strains P. aeruginosa R2 and 121110 under treatment with CAP-18, CAP-18_31, D-CAP-18, and D-CAP-18_31 were chosen for TEM visualization. A total of 5 mL AST broth cultures were prepared in 50 mL Falcon tubes and inoculated with single colonies grown in Columbia Agar incubated at 37 °C. Liquid cultures were then diluted 1:100 in fresh AST broth and incubated at 37 °C until OD 0.6 was reached. Cultures were then centrifuged 10 min at 3000× g at 4 °C, and supernatant was discarded and replaced by fresh AST. […] Results from TKC assays were used as a guidance to choose peptide concentrations and incubation times for TEM sample visualization. After incubation, tubes were centrifuged thrice for 15′ at 5000× g and 4 °C, substituting supernatant after each centrifugation by adding 10 mL PBS 1× to the pellet and resuspending. Supernatant was discarded after the final centrifugation step. Pellet was fixed by adding 1 mL of 2.5% glutaraldehyde + 2% paraformaldehyde in PBS 0.1 M at pH 7.4, and centrifuged 10′ at 5000× g and 4 °C. Supernatant was discarded 30 min after centrifugation and pellet was washed twice with 1 mL of fresh fixing solution. Samples were stored 4 °C O/N and processed by the Electronic Microscopy Unit, Medicine Faculty, University of Barcelona. University of Barcelona Microscopy Facilities.

Compound | effect after 24 h incubation (P. aeruginosa R2; strain R2, 4× MIC) | incubation time to bactericidal effect (decrease of at least 3 log10 CFU/mL) (P. aeruginosa R2; strain R2, 4× MIC) [h] | effect after 24 h incubation (P. aeruginosa R2; strain R2, 8× MIC) | incubation time to bactericidal effect (decrease of at least 3 log10 CFU/mL) (P. aeruginosa R2; strain R2, 8× MIC) [h] | effect on cell morphology (TEM) [1] | incubation time to bactericidal effect (decrease of at least 3 log10 CFU/mL) (P. aeruginosa R2; strain R2, 2× MIC) [h]
CC[C@@H](C)[C@@H](NC(=O)[C@@H](CCCCN)NC(=O)[C@@H](CCCCN)NC(=O)[C@@H](CC(C)C)NC(=O)[C@@H](CCCCN)NC(=O)[C@@H](CCC(=O)O)NC(=O)[C@@H](CCCCN)NC(=O)[C@H](NC(=O)[C@@H](CCCCN)NC(=O)[C@@H](CC(N)=O)NC(=O)[C@@H](CCCNC(=N)N)NC(=O)[C@@H](Cc1ccccc1)NC(=O)[C@@H](CCCCN)NC(=O)[C@@H](CCCNC(=N)N)NC(=O)[C@@H](CC(C)C)NC(=O)[C@@H](CCCNC(=N)N)NC(=O)[C@@H](CCCCN)NC(=O)[C@@H](CCCNC(=N)N)NC(=O)[C@@H](CC(C)C)NC(=O)CN)[C@H](C)CC)C(=O)NCC(=O)N[C@H](CCC(N)=O)C(=O)N[C@H](CCCCN)C(=O)N[C@@H](C(=O)N[C@H](CCC(N)=O)C(=O)NCC(=O)N[C@H](CC(C)C)C(=O)N[C@H](CC(C)C)C(=O)N1CCC[C@@H]1C(=O)N[C@H](CCCCN)C(=O)N[C@H](CC(C)C)C(=O)O)[C@H](C)CC [D-CAP-18_31, Glrkrlrkfrnkikeklkkigqkiqgllpkl] (H-G[dL][dR][dK][dR][dL][dR][dK][dF][dR][dN][dK][dI][dK][dE][dK][dL][dK][dK][dI]G[dQ][dK][dI][dQ]G[dL][dL][dP][dK][dL]-OH) | maintained after 24 h | 8 | maintained after 24 h | 4 | different stages of cellular damage | –
H-GLRKRLRKFRNKIKEKLKKIGQKIQGLLPKL-OH [CAP-18_31] | bacterial regrowth | 4 | maintained the bactericidal effect after 24 h | 4 | different stages of cellular damage | 8
